Measurements published in patent US12465618B2, “Compositions and methods for degenerative disc regeneration” (University Health Network, priority 2015, dated 2025).

Assays:
[1] = test system: rat-tail injured disc NPs; assay: Pre-clinical rodent needle puncture disc injury model of DDD, intra-discal injection; format: in vivo, Wistar rat
Method: 12-week old female Wistar rats (Charles River Laboratories International, Inc., MA, USA) were used in order to develop a pre-clinical rodent model of DDD and to evaluate the therapeutic potential of NCCM, CTGF and TGFβ1 in these pre-clinical rodent models. Experiments were performed in accordance with the Guide for the Care and Use of Laboratory Animals, and the experimental protocols were approved by the ethics approval board of Toronto Western Hospital, Toronto, ON, Canada. The surgical procedure was as follows: Anesthesia was achieved using isofluorane (5 L/min plus 1 L/min O2) and maintained at 3 L/min. Once deeply anaesthetized, the animal was affixed on a stereotactic procedure apparatus (Model 900, Kopf Instruments California USA) with nose cone inhalation. For animal experiments, the tail was shaved and prepped with isopropanol in a sterile manner. Fluoroscopy was used to visualize needle penetration and to ensure that the needle penetrated into the center of the NP. For disc injury, a 26-gauge (G), 35° beveled, 0.75 inches high needle (Hamilton Company, USA) mounted on a Hamilton syringe was used. The needle was advanced completely through the selected tail IVD to penetrate the full thickness inclusive of the annulus fibrosus on both sides of the disc. Confirmation of needle placement was made using fluoroscopy and maintained in position for 2 minutes, withdrawn halfway to the center of the NP and left there for 1 minute and then slowly withdrawn completely over a 1-minute period. The animals were then removed from the stereotactic apparatus and allowed to recover in a warmed cage. At the end of study period i.e. 72 hrs-10 weeks, animals were humanely euthanized using CO2 and each vertebral lumbar/caudal motion segment was dissected aseptically. IVDs were either fixed in formalin for histological analysis or the nucleus pulposus (healthy/injured) was harvested and lysed in RIPA buffer (50 mM Tris, pH=7.4, 150 mM NaCl, 1% NP-40 and protease inhibitor cocktail) for western blotting.
To determine the regenerative potential of NCCM, CTGF or TGFβ1, 4 IVDs per animal of 12 week old rats were injured using a 26G needle as described above. Four weeks post-injury, animals were randomized into groups of six and an intra-discal injection (˜8 μL) of either NCCM, CTGF (100 ng/mL) or TGFβ1 (10 ng/mL) was given under local anesthesia. For NCCM injected animals, the control group consisted of animals that received an intra-discal injection (˜8 μL) of Hybridoma culture medium only, while phosphate buffered saline (PBS, 1×, pH=7.2) served as control for CTGF and TGFβ1 injected animal groups. Six weeks later, the NPs from injured and control discs were harvested and either fixed in formalin for histological analysis or lysed in RIPA lysis buffer for western blotting. Each of this experiment was repeated independently to ensure reproducibility.
The tissues were fixed in 10% formalin and decalcified in 10% EDTA solution. The decalcified disc was initially split in the mid sagittal plane, embedded in paraffin and 5p thick sections were obtained for histological evaluation. Hemaetoxylin and eosin (H&E) and Safranin-O staining was performed to assess general morphology and proteoglycan content in these tissue sections as previously described^16. For immunohistochemistry/immunofluorescence (IF), paraffin-embedded sections (5 μm) of human degenerative disc NP, bovine NP, healthy canines (NCD) and rat (healthy/injured) discs were deparaffinized in xylene, hydrated in gradient alcohol followed by antigen retrieval in Tris-EDTA buffer (pH=9.0). The sections were incubated with hydrogen peroxide (0.3% v/v) in methanol for 15 minutes to quench the endogenous peroxidase activity, followed by blocking with 10% serum to preclude non-specific binding. Thereafter, the slides were incubated with either rabbit or goat polyclonal/mouse monoclonal primary antibodies overnight (O/N) at 4° C. […]

[2] = test system: human degenerative disc NP cells; assay: qRT-PCR with gene specific primers; format: cell-based; conditions: human degenerated disc NP cells, real time PCR
Method: Total RNA from healthy and treated (IL-1β alone or in combination with TNFα) rat NP cells, were isolated using RNAeasy extraction kit (Cat #74134, Qiagen) and quantified using a Nanodrop spectrophotometer. Total RNA (˜400 ng) was reverse-transcribed using RT^2 First Strand Kit (Cat #330401, Qiagen) following the manufacturer's instructions for preparing cDNA. To evaluate the effect of IL-1β alone or in combination with TNFα on extra-cellular matrix (ECM) genes in rat NP cells, the RT^2 Profiler™ PCR Array Rat Extracellular Matrix & Adhesion Molecules (PARN-013Z, Qiagen) was used and compared with no treatment controls (NTC) in 3 independent experiments using real time PCR performed on ABI 7900HT 384-well Fast block machine. Data analysis including calculation of ΔΔCt values, fold changes and p-values was carried out using software available online (https://www.qiagen.com/ca). Total RNA was isolated from human degenerative disc NP cells (H1/H2) treated with CTGF, TGFβ1, CTGF+TGFβ1 to evaluate their effect on collagen 2, HAPLN1, versican and thrombospondin 1 using gene specific primers. Similarly, RNA was isolated from human NP cells were treated with […] alone or in combination TNFα in presence of CTGF and TGFβ1 to determine their effect on Cox2 and MMP-13 expression using qRT-PCR.

[3] = test system: human degenerative disc NP cells; assay: Caspase 9 Lumi-Glo assay, cytokine induced; format: cell-based; conditions: 48 hrs
Method: Apoptosis induced in NP cells (rat and human) as result of treatment with pro-inflammatory cytokines (IL-1β and TNFα) was determined using Caspase 3/7 and Caspase 9 specific Lumi-Glo assays (Promega, Madison). Briefly, NP cells were plated and treated with either IL-1β alone or in combination with TNFα only or in presence of CTGF and TGFβ1 for 48 hrs, followed by addition of specific reagents for Caspase 3/7 and Caspase 9 as per the manufacturer's instructions. Cells were incubated for another 4 hrs at 37° C., and plates were read in a multi-well luminescence plate reader.

[4] = rat tail injured discs, western blots, FIG. 12(b)

TGFβ1: Human recombinant transforming growth factor beta 1, Peprotech cat #100-21, identified in NCCM
aggrecan and collagen II (immunohistochemical analysis) ([1]; intra-discal injection four weeks following injury, 10 weeks post-injury, vs vehicle control): strong expression | histological analysis, Safranin-O staining of NP ([1]; intra-discal injection four weeks following injury, CTGF 100 ng/mL, TGFβ1 10 ng/mL, 10 weeks post-injury, vs PBS): healthy disc, rich in NCs | expression of MMP-13 and Cox2 in NP tissue lysates [1, 4]: decreased expression | stem cell marker Oct4 in NP tissue lysates [1, 4]: restoration | mRNA levels of collagen 2, HAPLN1, versican and thrombospondin1 (THBS1) [2]: Increased mRNA levels | IL-1β and TNFα induced caspase 9 activity [3]: significant reduction
